In brackets after ≈: the same amount, converted by molar mass. Read-outs that look alike come from different tables or passages of the source.

Usually MIC stands for the smallest concentration in the dilution series that meets the test's criterion for growth inhibition.

One assay has as its system E. coli strain 25922. As to the kind of experiment: MIC by broth microdilution, E. coli strain 25922. Type of assay: cell-based. In a few lines: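 CLSI broth microdilution in cation-adjusted Mueller-Hinton broth, inoculum about 5×10^5 CFU/mL, 10% DMSO from the diluted series, 20 h at 35-37° C. MIC is the lowest concentration preventing visible growth, read by eye and at 600 nm.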
(Dilution methods test growth across graded concentrations, often in twofold steps.)

Another assay concerns E. coli containing KPC-2. The assay can be described thus: MIC by broth microdilution, E. coli containing KPC-2 (Ec KPC2 Iso). Type of assay: cell-based. The following applies: Escherichia coli, read-out: Ec KPC2 Iso (MIC), E. coli containing KPC-2 (carbapenemase from Klebsiella pneumoniae). In a few lines: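 Host E. coli BW25113 pspB carrying multicopy pBAD18-kan plasmid with constitutive TEM-promoter KPC-2 expression (periplasmic signal sequence); broth microdilution per CLSI in cation-adjusted Mueller-Hinton broth, inoculum ~5×10^5 CFU/mL, compounds twofold serially diluted from DMSO masters (10% DMSO in dilution series added).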

[1] abbreviates: Escherichia coli, 25922, E. coli strain 25922, read-out: Ec 25922 (MIC).
Where [2] appears, read: Escherichia coli, 25922, read-out: Ec 25922 (MIC).

For `N=C(NCCN)c1ccc(OC[C@H](O/N=C(\C(=O)N[C@@H]2C(=O)N(S(=O)(=O)O)[C@@H]2Cn2ncc(CN)n2)c2csc(N)n2)C(=O)O)cc1` [Example 66, (S)-3-(4-(N-(2-aminoethyl)carbamimidoyl)phenoxy)-2-(((Z)-(2-(((2R,3S)-2-((4-(aminomethyl)-2H-1,2,3-triazol-2-yl)methyl)-4-oxo-1-sulfoazetidin-3-yl)amino)-1-(2-aminothiazol-4-yl)-2-oxoethylidene)amino)oxy)propanoic acid], the MIC with E. coli strain 25922 (setting [1]) came out at 1 µg/mL (≈ 1.44 µM); in the assay with E. coli containing KPC-2, 2 µg/mL (≈ 2.88 µM).

On to `N=C(NCCN)c1ccc(OC[C@H](O/N=C(\C(=O)N[C@@H]2C(=O)N(S(=O)(=O)O)[C@@H]2Cn2cncn2)c2csc(N)n2)C(=O)O)cc1` [Example 67, (S)-2-(((Z)-(2-(((2R,3S)-2-((1H-1,2,4-triazol-1-yl)methyl)-4-oxo-1-sulfoazetidin-3-yl)amino)-1-(2-aminothiazol-4-yl)-2-oxoethylidene)amino)oxy)-3-(4-(N-(2-aminoethyl)carbamimidoyl)phenoxy)propanoic acid], for which the MIC in the assay with E. coli strain 25922 (setting [1]) was 0.25 µg/mL (≈ 0.376 µM); in the assay with E. coli containing KPC-2, 0.125 µg/mL (≈ 0.188 µM).

For the compound `N=C(NC1CNC1)c1ccc(OC[C@H](O/N=C(\C(=O)N[C@@H]2C(=O)N(S(=O)(=O)O)[C@@H]2Cn2cncn2)c2csc(N)n2)C(=O)O)cc1` [Example 68, (S)-2-(((Z)-(2-(((2R,3S)-2-((1H-1,2,4-triazol-1-yl)methyl)-4-oxo-1-sulfoazetidin-3-yl)amino)-1-(2-aminothiazol-4-yl)-2-oxoethylidene)amino)oxy)-3-(4-(N-(azetidin-3-yl)carbamimidoyl)phenoxy)propanoic acid], the minimal inhibitory concentration (MIC) in the assay with E. coli strain 25922 (setting [1]) and in the assay on E. coli containing KPC-2 was 0.25 µg/mL (≈ 0.369 µM) in each case.

For the compound `NCCCNCc1cn(C[C@@H]2[C@H](NC(=O)/C(=N\OC3(C(=O)O)CC3)c3csc(N)n3)C(=O)N2S(=O)(=O)O)nn1` [Example 69, 1-(((Z)-(2-(((2R,3S)-2-((4-(((3-aminopropyl)amino)methyl)-1H-1,2,3-triazol-1-yl)methyl)-4-oxo-1-sulfoazetidin-3-yl)amino)-1-(2-aminothiazol-4-yl)-2-oxoethylidene)amino)oxy)cyclopropanecarboxylic acid compound with formic acid (1:1)], the MIC with E. coli strain 25922 (setting [2]) was determined as 0.25 µg/mL (≈ 0.426 µM); in the assay on E. coli containing KPC-2 it was 0.125 µg/mL (≈ 0.213 µM).

Consider `CC(C)(O/N=C(\C(=O)N[C@@H]1C(=O)N(S(=O)(=O)O)[C@@H]1CN1CCN(CCN)C1=O)c1csc(N)n1)C(=O)O` [Example 70, 2-(((Z)-(2-(((2R,3S)-2-((3-(2-aminoethyl)-2-oxoimidazolidin-1-yl)methyl)-4-oxo-1-sulfoazetidin-3-yl)amino)-1-(2-aminothiazol-4-yl)-2-oxoethylidene)amino)oxy)-2-methylpropanoic acid], for which the MIC with E. coli strain 25922 (setting [1]) and in the assay on E. coli containing KPC-2 was 8 µg/mL (≈ 14.2 µM) throughout.

As to `N=C(N[C@H]1CCNC1)c1ccc(OC[C@H](O/N=C(\C(=O)N[C@@H]2C(=O)N(S(=O)(=O)O)[C@@H]2Cn2cncn2)c2csc(N)n2)C(=O)O)cc1` [Example 71, (S)-2-(((Z)-(2-(((2R,3S)-2-((1H-1,2,4-triazol-1-yl)methyl)-4-oxo-1-sulfoazetidin-3-yl)amino)-1-(2-aminothiazol-4-yl)-2-oxoethylidene)amino)oxy)-3-(4-(N—((S)-pyrrolidin-3-yl)carbamimidoyl)phenoxy)propanoic acid], the MIC with E. coli strain 25922 (setting [1]) and with E. coli containing KPC-2 was 0.25 µg/mL (≈ 0.361 µM) each time.

`CC(C)(O/N=C(\C(=O)N[C@@H]1C(=O)N(S(=O)(=O)O)[C@@H]1CN1C[C@H](CO)OC1=O)c1csc(N)n1)C(=O)O` [Example 72, 2-(((Z)-(1-(2-aminothiazol-4-yl)-2-(((2R,3S)-2-(((R)-5-(hydroxymethyl)-2-oxooxazolidin-3-yl)methyl)-4-oxo-1-sulfoazetidin-3-yl)amino)-2-oxoethylidene)amino)oxy)-2-methylpropanoic acid]: the MIC with E. coli strain 25922 (setting [1]) and with E. coli containing KPC-2 was 4 µg/mL (≈ 7.27 µM) throughout.

Take `N=C(N[C@@H]1CCNC1)c1ccc(OC[C@H](O/N=C(\C(=O)N[C@@H]2C(=O)N(S(=O)(=O)O)[C@@H]2Cn2cncn2)c2csc(N)n2)C(=O)O)cc1` [Example 73, (S)-2-(((Z)-(2-(((2R,3S)-2-((1H-1,2,4-triazol-1-yl)methyl)-4-oxo-1-sulfoazetidin-3-yl)amino)-1-(2-aminothiazol-4-yl)-2-oxoethylidene)amino)oxy)-3-(4-(N—((R)-pyrrolidin-3-yl)carbamimidoyl)phenoxy)propanoic acid]: the MIC in the assay with E. coli strain 25922 (setting [1]) and in the assay with E. coli containing KPC-2 was 0.25 µg/mL (≈ 0.361 µM) throughout.

As to `CC(C)(O/N=C(\C(=O)N[C@@H]1C(=O)N(S(=O)(=O)O)[C@@H]1Cn1cnc(C(N)=O)n1)c1csc(N)n1)C(=O)O` [Example 74, 2-(((Z)-(1-(2-aminothiazol-4-yl)-2-(((2R,3S)-2-((3-carbamoyl-1H-1,2,4-triazol-1-yl)methyl)-4-oxo-1-sulfoazetidin-3-yl)amino)-2-oxoethylidene)amino)oxy)-2-methylpropanoic acid], the MIC in the assay with E. coli strain 25922 (setting [1]) came out at 8 µg/mL (≈ 14.7 µM); with E. coli containing KPC-2, 32 µg/mL (≈ 58.7 µM).

`N=C(NC1CCNCC1)c1ccc(OC[C@H](O/N=C(\C(=O)N[C@@H]2C(=O)N(S(=O)(=O)O)[C@@H]2Cn2cncn2)c2nsc(N)n2)C(=O)O)cc1` [Example 75, (S)-2-(((Z)-(2-(((2R,3S)-2-((1H-1,2,4-triazol-1-yl)methyl)-4-oxo-1-sulfoazetidin-3-yl)amino)-1-(5-amino-1,2,4-thiadiazol-3-yl)-2-oxoethylidene)amino)oxy)-3-(4-(N-(piperidin-4-yl)carbamimidoyl)phenoxy)propanoic acid]: the MIC in the assay on E. coli strain 25922 (setting [1]) and in the assay with E. coli containing KPC-2 was 0.5 µg/mL (≈ 0.707 µM) each time.

Consider `CC(C)(O/N=C(\C(=O)N[C@@H]1C(=O)N(S(=O)(=O)O)[C@@H]1CN1CC[C@H](N)C1=O)c1csc(N)n1)C(=O)O` [Example 76, 2-(((Z)-(2-(((2R,3S)-2-(((S)-3-amino-2-oxopyrrolidin-1-yl)methyl)-4-oxo-1-sulfoazetidin-3-yl)amino)-1-(2-aminothiazol-4-yl)-2-oxoethylidene)amino)oxy)-2-methylpropanoic acid], for which the MIC with E. coli strain 25922 (setting [1]) was 1 µg/mL (≈ 1.87 µM); in the assay with E. coli containing KPC-2, 0.5 µg/mL (≈ 0.937 µM).

In the case of `N=C(N[C@H]1C[C@H](N)C1)c1ccc(OC[C@H](O/N=C(\C(=O)N[C@@H]2C(=O)N(S(=O)(=O)O)[C@@H]2Cn2cncn2)c2csc(N)n2)C(=O)O)cc1` [Example 77, (S)-2-(((Z)-(2-(((2R,3S)-2-((1H-1,2,4-triazol-1-yl)methyl)-4-oxo-1-sulfoazetidin-3-yl)amino)-1-(2-aminothiazol-4-yl)-2-oxoethylidene)amino)oxy)-3-(4-(N-((1r,3S)-3-aminocyclobutyl)carbamimidoyl)phenoxy)propanoic acid], the MIC with E. coli strain 25922 (setting [1]) came to 0.25 µg/mL (≈ 0.361 µM); with E. coli containing KPC-2 it was 0.125 µg/mL (≈ 0.181 µM).

Take `N=C(NCCCN)c1ccc(OC[C@H](O/N=C(\C(=O)N[C@@H]2C(=O)N(S(=O)(=O)O)[C@@H]2Cn2cncn2)c2csc(N)n2)C(=O)O)cc1` [Example 78, (S)-2-(((Z)-(2-(((2R,3S)-2-((1H-1,2,4-triazol-1-yl)methyl)-4-oxo-1-sulfoazetidin-3-yl)amino)-1-(2-aminothiazol-4-yl)-2-oxoethylidene)amino)oxy)-3-(4-(N-(3-aminopropyl)carbamimidoyl)phenoxy)propanoic acid]: the values for the MIC with E. coli strain 25922 (setting [1]) and in the assay with E. coli containing KPC-2 were not above 0.06 µg/mL and 0.125 µg/mL (≈ 0.184 µM), respectively.

On to `N=C(NC1CCNCC1)c1ccc(OC[C@H](O/N=C(\C(=O)N[C@@H]2C(=O)N(S(=O)(=O)O)[C@@H]2Cn2cncn2)c2csc(N)n2)C(=O)O)cn1` [Example 79, (S)-2-(((Z)-(2-(((2R,3S)-2-((1H-1,2,4-triazol-1-yl)methyl)-4-oxo-1-sulfoazetidin-3-yl)amino)-1-(2-aminothiazol-4-yl)-2-oxoethylidene)amino)oxy)-3-((6-(N-(piperidin-4-yl)carbamimidoyl)pyridin-3-yl)oxy)propanoic acid], for which the MIC in the assay on E. coli strain 25922 (setting [1]) and with E. coli containing KPC-2 was 0.25 µg/mL (≈ 0.354 µM) each time.

With `CC(C)(O/N=C(\C(=O)N[C@@H]1C(=O)N(S(=O)(=O)O)[C@@H]1CN1CC[C@H](NC(=N)N)C1=O)c1csc(N)n1)C(=O)O` [Example 80, 2-(((Z)-(1-(2-aminothiazol-4-yl)-2-(((2R,3S)-2-(((S)-3-guanidino-2-oxopyrrolidin-1-yl)methyl)-4-oxo-1-sulfoazetidin-3-yl)amino)-2-oxoethylidene)amino)oxy)-2-methylpropanoic acid], the minimal inhibitory concentration (MIC) with E. coli strain 25922 (setting [1]) and with E. coli containing KPC-2 was 4 µg/mL (≈ 6.95 µM) throughout.

`N=C(NC1[C@H]2CNC[C@@H]12)c1ccc(OC[C@H](O/N=C(\C(=O)N[C@@H]2C(=O)N(S(=O)(=O)O)[C@@H]2Cn2cncn2)c2csc(N)n2)C(=O)O)cc1` (stereo partly drawn) [Example 81, (S)-2-(((Z)-(2-(((2R,3S)-2-((1H-1,2,4-triazol-1-yl)methyl)-4-oxo-1-sulfoazetidin-3-yl)amino)-1-(2-aminothiazol-4-yl)-2-oxoethylidene)amino)oxy)-3-(4-(N-((1R,5S,6s)-3-azabicyclo[3.1.0]hexan-6-yl)carbamimidoyl)phenoxy)propanoic acid]: the MIC in the assay with E. coli strain 25922 (setting [2]) and in the assay with E. coli containing KPC-2 was 0.125 µg/mL (≈ 0.178 µM) throughout.

For the compound `CC(C)(O/N=C(\C(=O)N[C@@H]1C(=O)N(S(=O)(=O)O)[C@@H]1Cc1cc(CN)on1)c1csc(N)n1)C(=O)O` [Example 82, 2-(((Z)-(2-(((2R,3S)-2-((5-(aminomethyl)isoxazol-3-yl)methyl)-4-oxo-1-sulfoazetidin-3-yl)amino)-1-(2-aminothiazol-4-yl)-2-oxoethylidene)amino)oxy)-2-methylpropanoic acid], the MIC with E. coli strain 25922 (setting [1]) and in the assay on E. coli containing KPC-2 was 0.5 µg/mL (≈ 0.941 µM) in each case.

The record behind these values is patent US10369138B2, “Monobactam organic compounds for the treatment of bacterial infections” (Novartis AG, priority 2014, dated 2019).
